Where a name gives a salt, the structure may show the parent alone. Read-outs that look alike come from different tables or passages of the source.
Target: Hsp82 (Saccharomyces cerevisiae, UniProt P02829)
Assay: PK/LDH enzyme coupling test of the ATPase activity of Hsp82 (NADH decrease at 340 nm)
Assay type: biochemical
Settings: 1 μM Hsp82, 250 μM ATP, 37° C., pyruvate kinase/lactate dehydrogenase coupling
From the text: The formation of ADP due to the ATPase activity of Hsp82 was utilized for developing another method of evaluating the enzymatic activity of this enzyme by application of an enzyme coupling system employing pyruvate kinase (PK) and lactate dehydrogenase (LDH). In this spectrophotometric method of the kinetic type, the PK catalyses the formation of ATP and of pyruvate starting from phosphoenol-pyruvate (PEP) and the ADP produced by HSP82. The pyruvate that formed, an LDH substrate, is then converted to lactate in the presence of NADH. In this case, the decrease in the concentration of NADH, measured by the decrease in absorbance at wavelength of 340 nm, is proportional to the concentration of ADP produced by HSP82. […] This mixture is preincubated at 37° C. for 30 min before adding 3.77 units of LDH and 3.77 units of PK. The reaction is started by adding the product to be evaluated, in variable concentrations, and of Hsp82, at a concentration of 1 μM. The enzymatic activity of Hsp82 is then measured continuously in a microplate reader at 37° C., at wavelength of 340 nm. The initial reaction rate is found by measuring the slope of the tangent at the origin of the recorded curve. The enzymatic activity is expressed as μM of ADP formed per minute. The effect of the various products tested is expressed as percentage of inhibition of ATPase activity, using the following codes: • A: […]

Sequence of Hsp82 (P02829 whole entry): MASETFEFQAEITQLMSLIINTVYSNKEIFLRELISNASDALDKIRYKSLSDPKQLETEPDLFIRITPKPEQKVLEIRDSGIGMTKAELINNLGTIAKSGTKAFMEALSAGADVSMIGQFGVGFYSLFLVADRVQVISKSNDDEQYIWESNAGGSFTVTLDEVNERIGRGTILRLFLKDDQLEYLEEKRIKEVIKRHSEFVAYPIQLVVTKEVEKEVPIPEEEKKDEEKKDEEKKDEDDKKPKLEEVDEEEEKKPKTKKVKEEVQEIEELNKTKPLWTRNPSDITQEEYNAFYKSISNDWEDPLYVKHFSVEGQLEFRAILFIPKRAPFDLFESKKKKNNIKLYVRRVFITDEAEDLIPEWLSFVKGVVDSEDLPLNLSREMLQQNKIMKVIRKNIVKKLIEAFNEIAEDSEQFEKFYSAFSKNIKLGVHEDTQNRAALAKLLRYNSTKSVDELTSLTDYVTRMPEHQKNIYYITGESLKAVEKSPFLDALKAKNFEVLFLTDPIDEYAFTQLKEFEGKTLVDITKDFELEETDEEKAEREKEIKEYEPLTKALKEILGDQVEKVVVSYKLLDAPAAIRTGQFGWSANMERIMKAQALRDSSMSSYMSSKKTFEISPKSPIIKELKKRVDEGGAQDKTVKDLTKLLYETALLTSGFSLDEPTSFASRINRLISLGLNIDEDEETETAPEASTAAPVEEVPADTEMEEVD

SMILES | IC50 (read-out: Hsp82 ATPase IC50) | IC50 (Hsp82 ATPase IC50 μM)
ON=C1c2ccccc2-c2c1cccc2-c1nc2ccc(O)cc2[nH]1 (racemic) [Example 107, 4-(6-hydroxy-1H-benzimidazol-2-yl)-fluoren-9-one oxime (Z,E)] | 10 to 100 µM | 
FC1c2ccccc2-c2c(-c3nc4cnccc4[nH]3)cccc21 (racemic) [Example 10, 2-[9(R,S)-fluoro-9H-fluoren-4-yl]-1H-imidazo[4,5-c]pyridine] | 1 to 10 µM | 
O=C(Cc1cccnc1)NC1c2ccccc2-c2c(-c3nc4cnccc4[nH]3)cccc21 (racemic) [Example 21, N-[4-(3H-imidazo[4,5-c]pyridin-2-yl)-9H-fluoren-9(R,S)-yl]-2-(pyridin-3-yl)-acetamide] | 1 to 10 µM | 
CC(C)(C)OC(=O)N[C@@H](CC(N)=O)C(=O)NC1c2ccccc2-c2c(-c3nc4cnccc4[nH]3)cccc21 (stereo partly drawn) [Example 57, tert-butyl ester of {(S)-2-carbamoyl-1-[4-(3H-imidazo[4,5-c]pyridin-2-yl)-9H-fluoren-9(R,S)-ylcarbamoyl]-ethyl}-carbamoic acid] | 1 to 10 µM | 
O=C(NC1c2ccccc2-c2c(-c3nc4cnccc4[nH]3)cccc21)c1cccc2[nH]ccc12 (racemic) [Example 53, [4-(3H-imidazo[4,5-c]pyridin-2-yl)-9H-fluoren-9(R,S)-yl]amide of 1H-indole-4-carboxylic acid] | 1 to 10 µM | 
NC(=O)NC1c2ccccc2-c2c(-c3nc4ccncc4[nH]3)cccc21 (racemic) [Example 28, [4-(3H-imidazo[4,5-c]pyridin-2-yl)-9H-fluoren-9(R,S)-yl]-urea trifluoroacetate] |  | 10 to 100 µM
O=C(NC1c2ccccc2-c2c(-c3nc4cnccc4[nH]3)cccc21)c1nccc2ccccc12 (racemic) [Example 64, [4-(3H-imidazo[4,5-c]pyridin-2-yl)-9H-fluoren-9(R,S)-yl]amide of isoquinoline-1-carboxylic acid] | 10 to 100 µM | 
Nc1cnccc1C(=O)NC1c2ccccc2-c2c(-c3nc4ccncc4[nH]3)cccc21 (racemic) [Example 104, 3-amino-N-[4-(3H-imidazo[4,5-c]pyridin-2-yl)-9H-fluoren-9(R,S)-yl]-isonicotinamide] | < 1 µM | 
CCOC(=O)CNC(=O)NC1c2ccccc2-c2c(-c3nc4ccncc4[nH]3)cccc21 (racemic) [Example 78, ethyl ester of {3-[4-(3H-imidazo[4,5-c]pyridin-2-yl)-9H-fluoren-9(R,S)-yl]-ureido}-acetic acid] | 10 to 100 µM | 
Cc1cc(C(=O)NC2c3ccccc3-c3c(-c4nc5ccncc5[nH]4)cccc32)cc(O)n1 (racemic) [Example 121, 2-hydroxy-N-[4-(3H-imidazo[4,5-c]pyridin-2-yl)-9H-fluoren-9(R,S)-yl]-6-methyl-isonicotinamide] | 1 to 10 µM | 
O=C(NC1c2ccccc2-c2c(-c3nc4ccncc4[nH]3)cccc21)c1ccnc2ncccc12 (racemic) [Example 97, hydrochloride of [4-(3H-imidazo[4,5-c]pyridin-2-yl)-9H-fluoren(R,S)-9-yl]amide of 1,8-naphthyridine-4-carboxylic acid] | 1 to 10 µM | 
CC(C)(C)OC(=O)N[C@H](CC(=O)NC1c2ccccc2-c2c(-c3nc4cnccc4[nH]3)cccc21)C(N)=O (stereo partly drawn) [Example 59, tert-butyl ester of {(R)-1-carbamoyl-2-[4-(3H-imidazo[4,5-c]pyridin-2-yl)-9H-fluoren-9(R,S)-ylcarbamoyl]-ethyl}-carbamoic acid] | 1 to 10 µM | 
O=C1CCc2c1cccc2C(=O)NC1c2ccccc2-c2c(-c3nc4cnccc4[nH]3)cccc21 (racemic) [Example 60, [4-(3H-imidazo[4,5-c]pyridin-2-yl)-9H-fluoren-9(R,S)-yl]amide of 1-oxo-indan-4-carboxylic acid] | 1 to 10 µM | 
O=C(NC1c2ccccc2-c2c(-c3nc4ccncc4[nH]3)cccc21)C1CCOCC1 (racemic) [Example 32, [4-(3H-imidazo[4,5-c]pyridin-2-yl)-9H-fluoren-9(R,S)-yl]amide of tetrahydropyran-4-carboxylic acid] | 10 to 100 µM | 
OC1c2ccccc2-c2c(-c3nc4cnccc4[nH]3)cccc21 (racemic) [Example 3, 4-(3H-imidazo[4,5-c]pyridin-2-yl)-9H-fluoren-9(R,S)-ol] | 10 to 100 µM | 

The next lines start with results.

IC50 (read-out: Hsp82 ATPase IC50) | SMILES | IC50 (Hsp82 ATPase IC50 μM)
10 to 100 µM | O=C(NC1c2ccccc2-c2c(-c3nc4ccccc4[nH]3)cccc21)c1cccc2ncccc12 (racemic) [Example 83, [4-(1H-benzimidazol-2-yl)-9H-fluoren-9(R,S)-yl]amide of quinoline-5-carboxylic acid] | 
1 to 10 µM | COc1ccc(CC(=O)NC2c3ccccc3-c3c(-c4nc5cnccc5[nH]4)cccc32)cc1 (racemic) [Example 27, N-[4-(3H-imidazo[4,5-c]pyridin-2-yl)-9H-fluoren-9(R,S)-yl]-2-(4-methoxy-phenyl)-acetamide] | 
1 to 10 µM | O=C(NC1c2ccccc2-c2c(-c3nc4ccncc4[nH]3)cccc21)N1CCOCC1 (racemic) [Example 51, [4-(3H-imidazo[4,5-c]pyridin-2-yl)-9H-fluoren-9(R,S)-yl]amide trifluoroacetate of morpholine-4-carboxylic acid] | 
< 1 µM | O=C(NC1c2ccccc2-c2c(-c3nc4ccncc4[nH]3)cccc21)c1ccnc(Br)c1 (racemic) [Example 102, 2-bromo-N-[4-(3H-imidazo[4,5-c]pyridin-2-yl)-9H-fluoren-9(R,S)-yl]-isonicotinamide] | 
10 to 100 µM | ON=C1c2ccccc2-c2c1cccc2-c1nc2ccccc2[nH]1 (racemic) [Example 68, 4-(1H-benzimidazol-2-yl)-fluoren-9-one oxime (Z,E)] | 
1 to 10 µM | Cc1ccc2c(C(=O)NC3c4ccccc4-c4c(-c5nc6ccncc6[nH]5)cccc43)cccc2n1 (stereo not drawn) [Example 90, [4-(3H-imidazo[4,5-c]pyridin-2-yl)-9H-fluoren-9-yl]amide of 2-methyl-quinoline-5-carboxylic acid] | 
1 to 10 µM | O=C(NC1c2ccccc2-c2c(-c3nc4ccncc4[nH]3)cccc21)c1cc[n+]([O-])cc1 (racemic) [Example 81, N-[4-(3H-imidazo[4,5-c]pyridin-2-yl)-9H-fluoren-9(R,S)-yl]-1-oxyisonicotinamide] | 
1 to 10 µM | O=C(NC1c2ccccc2-c2c(-c3nc4ccncc4[nH]3)cccc21)C(=O)c1ccoc1 (racemic) [Example 36, 2-furan-3-yl-N-[4-(3H-imidazo[4,5-c]pyridin-2-yl)-9H-fluoren-9(R,S)-yl]-2-oxo-acetamide] | 
< 1 µM | Nc1nccc(C(=O)NC2c3ccccc3-c3c(-c4nc5ccncc5[nH]4)cccc32)n1 (stereo not drawn) [Example 91, [4-(3H-imidazo[4,5-c]pyridin-2-yl)-9H-fluoren-9-yl]amide of 2-amino-pyrimidine-4-carboxylic acid] | 
1 to 10 µM | O=C(NC1c2ccccc2-c2c(-c3nc4ccncc4[nH]3)cccc21)c1ccc2cc[nH]c2c1 (racemic) [Example 46, [4-(3H-imidazo[4,5-c]pyridin-2-yl)-9H-fluoren-9(R,S)-yl]amide of 1H-indole-6-carboxylic acid] | 
10 to 100 µM | c1ccc(CCNC2c3ccccc3-c3c(-c4nc5cnccc5[nH]4)cccc32)cc1 (racemic) [Example 16, N-[4-(3H-imidazo[4,5-c]pyridin-2-yl)-9H-fluoren-9(R,S)-yl]-phenethyl-amine] | 
< 1 µM | S=C(NC1c2ccccc2-c2c(-c3nc4cnccc4[nH]3)cccc21)c1cccc2ncccc12 (racemic) [Example 55, [4-(3H-imidazo[4,5-c]pyridin-2-yl)-9H-fluoren-9(R,S)-yl]amide trifluoroacetate of quinoline-5-carbothioic acid] | 
1 to 10 µM | CCOC(=O)CCNC(=O)NC1c2ccccc2-c2c(-c3nc4ccncc4[nH]3)cccc21 (racemic) [Example 77, ethyl ester of 3-{3-[4-(3H-imidazo[4,5-c]pyridin-2-yl)-9H-fluoren-9(R,S)-yl]-ureido}-propionic acid] | 
1 to 10 µM | COc1ccc2nc(-c3cccc4c3-c3ccccc3C4NC(=O)c3ccncc3)[nH]c2c1 (racemic) [Example 106, N-[4-(6-methoxy-1H-benzimidazol-2-yl)-9H-fluoren-9(R,S)-yl]-isonicotinamide] | 
1 to 10 µM | Nc1ccc2c(C(=O)NC3c4ccccc4-c4c(-c5nc6cnccc6[nH]5)cccc43)cccc2c1 (racemic) [Example 54, [4-(3H-imidazo[4,5-c]pyridin-2-yl)-9H-fluoren-9(R,S)-yl]amide of 6-amino-naphthalene-1-carboxylic acid] | 
10 to 100 µM | O=C1c2ccccc2-c2c1cccc2-c1nc2ccc(F)cc2[nH]1 [Example 69, 4-(6-fluoro-1H-benzimidazol-2-yl)-fluoren-9-one] | 
10 to 100 µM | c1ccc2c(c1)-c1c(-c3nc4cnccc4[nH]3)cccc1C2NCc1ccc2cc[nH]c2c1 (racemic) [Example 22, N-[4-(3H-imidazo[4,5-c]pyridin-2-yl)-9H-fluoren-9(R,S)-yl]-(1H-indol-6-ylmethyl)-amine] | 
10 to 100 µM | OC=C1c2ccccc2-c2c1cccc2-c1nc2cnccc2[nH]1 (mixture of isomers) [Example 13, [4-(1H-imidazo[4,5-c]pyridin-2-yl)-fluoren-(9)-ylidene]-methanol, equimolecular mixture of the Z and E isomers] | 
